# According to US6900206B2, “Indole, azaindole and related heterocyclic sulfonylureido piperazine derivatives” (priority 2002, dated 2005):
# Test system: HIV-1 single-round infectious reporter virus
# Experiment: microbe, parasite or virus in culture
# Type: cell-based
# Details: Human immunodeficiency virus 1, HeLa, 72 h, read-out: EC50 Group from Table 1
# Description: • Virus production—Human embryonic Kidney cell line, 293T, was propagated in Dulbecco's Modified Eagle Medium (Invitrogen, Carlsbad, Calif.) containing 10% fetal Bovine serum (FBS, Sigma, St. Louis, Mo.). • Virus infection—Human epithelial cell line, HeLa, expressing the HIV-1 receptor CD4 was propagated in Dulbecco's Modified Eagle Medium (Invitrogen, Carlsbad, Calif.) containing 10% fetal Bovine serum (FBS, Sigma, St. Louis, Mo.) and supplemented with 0.2 mg/mL Geneticin (Invitrogen, Carlsbad, Calif.). Virus—Single-round infectious reporter virus was produced by co-transfecting human embryonic Kidney 293 cells with an HIV-1 envelope DNA expression vector and a proviral cDNA containing an envelope deletion mutation and the luciferase reporter gene inserted in place of HIV-1 nef sequences (Chen et al, Ref. 41). Transfections were performed using lipofectAMINE PLUS reagent as described by the manufacturer (Invitrogen, Carlsbad, Calif.). Experiment • 1. HeLa CD4 cells were plated in 96 well plates at a cell density of 1×10^4 cells per well in 100 μl Dulbecco's Modified Eagle Medium containing 10% fetal Bovine serum and incubated overnight. • 2. Compound was added in a 2 μl dimethylsulfoxide solution, so that the final assay concentration would be ≦10 μM. • 3. 100 μl of single-round infectious reporter virus in Dulbecco's Modified Eagle Medium was then added to the plated cells and compound at an approximate multiplicity of infection (MOI) of 0.01, resulting in a final volume of 200 μl per well. • 4. Virally-infected cells were incubated at 37 degrees Celsius, in a CO2 incubator, and harvested 72 h after infection. • 5. Viral infection was monitored by measuring luciferase expression from viral DNA in the infected cells using a luciferase reporter gene assay kit, as described by the manufacturer (Roche Molecular Biochemicals, Indianapolis, Ind.). Infected cell supernatants were removed and 50 μl of lysis buffer was added per well. After 15 minutes, 50 μl of freshly-reconstituted luciferase assay reagent was added per well. Luciferase activity was then quantified by measuring luminescence using a Wallac microbeta scintillation counter. • 6. […] An EC50 provides a method for comparing the antiviral potency of the compounds of this invention. The effective concentration for fifty percent inhibition (EC50) was calculated with the Microsoft Excel Xlfit curve fitting software. For each compound, curves were generated from percent inhibition calculated at 10 different concentrations by using a four paramenter logistic model (model 205). Table 1 is the key for the data in Table 2. Results
row,Structure (SMILES),EC50 [µM]
1,CNC(=O)c1ccc(F)c2c(C(=O)C(=O)N3CCN(S(=O)(=O)N4CCCCC4)CC3)c[nH]c12 [Example 9],1 to 5
2,CCN(CC)S(=O)(=O)N1CCN(C(=O)C(=O)c2c[nH]c3c(C(=O)NC)ccc(F)c23)CC1 [Example 11],1 to 5
3,CNC(=O)c1ccc(F)c2c(C(=O)C(=O)N3CCN(S(=O)(=O)N4CCOCC4)CC3)c[nH]c12 [Example 3],> 5
4,CNC(=O)c1ccc(F)c2c(C(=O)C(=O)N3CCN(S(=O)(=O)N4CCC4)CC3)c[nH]c12 [Example 10],> 5
5,COC(=O)c1ccc(F)c2c(C(=O)C(=O)N3CCN(S(=O)(=O)N4CCC4)CC3)c[nH]c12 [Example 6],> 5
6,CNC(=O)c1ccc(F)c2c(C(=O)C(=O)N3CCN(S(=O)(=O)NC)CC3)c[nH]c12 [Example 4],> 5
7,CN(C)S(=O)(=O)N1CCN(C(=O)C(=O)c2c[nH]c3c(-n4cncn4)ncc(F)c23)CC1 [Example 12],< 1
8,COC(=O)c1ccc(F)c2c(C(=O)C(=O)N3CCN(S(=O)(=O)N(C)C)CC3)c[nH]c12 [Example 5],> 5
9,COC(=O)c1ccc(F)c2c(C(=O)C(=O)N3CCN(S(=O)(=O)N4CCCCC4)CC3)c[nH]c12 [Example 7],1 to 5
10,CCN(CC)S(=O)(=O)N1CCN(C(=O)C(=O)c2c[nH]c3c(C(=O)OC)ccc(F)c23)CC1 [Example 8],1 to 5
11,CNC(=O)c1ccc(F)c2c(C(=O)C(=O)N3CCN(S(=O)(=O)Nc4ccccc4)CC3)c[nH]c12 [Example 2],1 to 5
12,CNC(=O)c1ccc(F)c2c(C(=O)C(=O)N3CCN(S(=O)(=O)N(C)C)CC3)c[nH]c12 [Example 1],< 1
